Measurements reported in patent US20090269798A1, “METHOD AND SYSTEM FOR SELECTING CHEMOTHERAPEUTIC AGENTS” (UNIVERSITY OF NORTHERN IOWA RESEARCH FOUNDATION, priority 2008, published 2009).
Like-named read-outs stand apart in the source and are kept apart here. Marks after values point to notes of the source that are not given here.

Tests used:
[1] = tested on: Jurkat (human T lymphocytic leukemia); details: 96 hours, ± standard deviation
Description: (§1) In the experiments shown in Table1 a/b, the indicated concentrations of hydrogen peroxide were added to the various types of cells and they were incubated for 96 hours until growth was measured by the ^3H-thymidine assay or viability determined by the 3-(4,5-diphenylthiazol-2-yl)-2,5-diphenyltetrazolium bromide (“MTT”) assay. Numbers represent triplicate or quadruplicate determinations.

[2] = tested on: YT-INDY (human NK cell leukemia); details: 96 hours, ± standard deviation
Description: as §1

[3] = tested on: K-562 (human erythroleukemia); details: 96 hours, ± standard deviation
Description: as §1

[4] = tested on: THP-1 (human monocytic leukemia); details: 96 hours, ± standard deviation
Description: as §1

Normal cells = details: 96 hours, ± standard deviation
Description: as §1

Jurkat cells = details: four-hour exposure, 25 μM H2O2

**Q.** `OO` [Hydrogen Peroxide, hydrogen peroxide] was tested. Which “amount of cell division remaining (compared to control cells without hydrogen peroxide)” value ([1]; 25 μM hydrogen peroxide) did it give?
**A.** 1.2 ± 0.4

**Q.** What about the “amount of cell division remaining (compared to control cells without hydrogen peroxide)” value ([1]; 50 μM hydrogen peroxide) of the same compound?
**A.** 2.4 ± 1.1

**Q.** And the “amount of cell division remaining (compared to control cells without hydrogen peroxide)” value ([1]; 100 μM hydrogen peroxide)?
**A.** 1.3 ± 1.1

**Q.** What about the “amount of cell division remaining (compared to control cells without hydrogen peroxide)” value ([1]; 200 μM hydrogen peroxide) of the same compound?
**A.** 1.0 ± 0.2

**Q.** And the “amount of cell division remaining (compared to control cells without hydrogen peroxide)” value ([2]; 25 μM hydrogen peroxide)?
**A.** 109.2 ± 2.4

**Q.** And the “level of live cells remaining (compared to control cells without hydrogen peroxide)” value ([2]; 25 μM hydrogen peroxide)?
**A.** 68.2 ± 4.8

**Q.** What about the “amount of cell division remaining (compared to control cells without hydrogen peroxide)” value ([2]; 50 μM hydrogen peroxide) of the same compound?
**A.** 2.8 ± 0.8

**Q.** And the “level of live cells remaining (compared to control cells without hydrogen peroxide)” value ([2]; 50 μM hydrogen peroxide)?
**A.** 32.1 ± 2.6

**Q.** What about the “amount of cell division remaining (compared to control cells without hydrogen peroxide)” value ([2]; 100 μM hydrogen peroxide) of the same compound?
**A.** 3.7 ± 2.5

**Q.** What about the “level of live cells remaining (compared to control cells without hydrogen peroxide)” value ([2]; 100 μM hydrogen peroxide) of the same compound?
**A.** 29.7 ± 1.0

**Q.** What about the “amount of cell division remaining (compared to control cells without hydrogen peroxide)” value ([2]; 200 μM hydrogen peroxide) of the same compound?
**A.** 10.2 ± 3.5

**Q.** What about the “level of live cells remaining (compared to control cells without hydrogen peroxide)” value ([2]; 200 μM hydrogen peroxide) of the same compound?
**A.** 27.5 ± 0.5

**Q.** What about the “amount of cell division remaining (compared to control cells without hydrogen peroxide)” value ([3]; 25 μM hydrogen peroxide) of the same compound?
**A.** 41.6 ± 24.5

**Q.** And the “level of live cells remaining (compared to control cells without hydrogen peroxide)” value ([3]; 25 μM hydrogen peroxide)?
**A.** 58.6 ± 3.2

**Q.** And the “amount of cell division remaining (compared to control cells without hydrogen peroxide)” value ([3]; 50 μM hydrogen peroxide)?
**A.** 7.1 ± 5.1

**Q.** And the “level of live cells remaining (compared to control cells without hydrogen peroxide)” value ([3]; 50 μM hydrogen peroxide)?
**A.** 19.6 ± 1.2

**Q.** And the “amount of cell division remaining (compared to control cells without hydrogen peroxide)” value ([3]; 100 μM hydrogen peroxide)?
**A.** 4.3 ± 2.6

**Q.** What about the “level of live cells remaining (compared to control cells without hydrogen peroxide)” value ([3]; 100 μM hydrogen peroxide) of the same compound?
**A.** 8.9 ± 0.2

**Q.** What about the “amount of cell division remaining (compared to control cells without hydrogen peroxide)” value ([3]; 200 μM hydrogen peroxide) of the same compound?
**A.** 2.7 ± 0.3

**Q.** What about the “level of live cells remaining (compared to control cells without hydrogen peroxide)” value ([3]; 200 μM hydrogen peroxide) of the same compound?
**A.** 8.0 ± 0.4

**Q.** What about the “amount of cell division remaining (compared to control cells without hydrogen peroxide)” value ([4]; 25 μM hydrogen peroxide) of the same compound?
**A.** 115.8 ± 10.6

**Q.** And the “level of live cells remaining (compared to control cells without hydrogen peroxide)” value ([4]; 25 μM hydrogen peroxide)?
**A.** 103.0 ± 2.2

**Q.** And the “amount of cell division remaining (compared to control cells without hydrogen peroxide)” value ([4]; 50 μM hydrogen peroxide)?
**A.** 102.8 ± 5.9

**Q.** What about the “level of live cells remaining (compared to control cells without hydrogen peroxide)” value ([4]; 50 μM hydrogen peroxide) of the same compound?
**A.** 101.8 ± 1.8

**Q.** And the “amount of cell division remaining (compared to control cells without hydrogen peroxide)” value ([4]; 100 μM hydrogen peroxide)?
**A.** 91.0 ± 0.2

**Q.** And the “level of live cells remaining (compared to control cells without hydrogen peroxide)” value ([4]; 100 μM hydrogen peroxide)?
**A.** 95.6 ± 0.6

**Q.** And the “amount of cell division remaining (compared to control cells without hydrogen peroxide)” value ([4]; 200 μM hydrogen peroxide)?
**A.** 63.2 ± 7.1

**Q.** What about the “level of live cells remaining (compared to control cells without hydrogen peroxide)” value ([4]; 200 μM hydrogen peroxide) of the same compound?
**A.** 65.6 ± 2.0

**Q.** And the “amount of cell division remaining (compared to control cells without hydrogen peroxide)” value (Normal cells; 25 μM hydrogen peroxide)?
**A.** 68.2 ± 5.4^b

**Q.** What about the “level of live cells remaining (compared to control cells without hydrogen peroxide)” value (Normal cells; 25 μM hydrogen peroxide) of the same compound?
**A.** 100.6 ± 3.3^b

**Q.** And the “amount of cell division remaining (compared to control cells without hydrogen peroxide)” value (Normal cells; 50 μM hydrogen peroxide)?
**A.** 84.4 ± 12.3

**Q.** What about the “level of live cells remaining (compared to control cells without hydrogen peroxide)” value (Normal cells; 50 μM hydrogen peroxide) of the same compound?
**A.** 102.7 ± 5.5

**Q.** And the “amount of cell division remaining (compared to control cells without hydrogen peroxide)” value (Normal cells; 100 μM hydrogen peroxide)?
**A.** 92.5 ± 19.9

**Q.** And the “level of live cells remaining (compared to control cells without hydrogen peroxide)” value (Normal cells; 100 μM hydrogen peroxide)?
**A.** 89.4 ± 0.9

**Q.** And the “amount of cell division remaining (compared to control cells without hydrogen peroxide)” value (Normal cells; 200 μM hydrogen peroxide)?
**A.** 81.9 ± 9.2

**Q.** And the “level of live cells remaining (compared to control cells without hydrogen peroxide)” value (Normal cells; 200 μM hydrogen peroxide)?
**A.** 83.0 ± 1.8

**Q.** And the “killing of Jurkat cells” value (Jurkat cells)?
**A.** significant killing
